According to paper PMC7853427 (Journal of the American Chemical Society, 2021):

Biological target: E. coli PheRS (Escherichia coli, UniProt P08312)
Test: inhibition of Phe activation by purified PheRS
Assay type: biochemical

E. coli PheRS, sequence (P08312 whole entry): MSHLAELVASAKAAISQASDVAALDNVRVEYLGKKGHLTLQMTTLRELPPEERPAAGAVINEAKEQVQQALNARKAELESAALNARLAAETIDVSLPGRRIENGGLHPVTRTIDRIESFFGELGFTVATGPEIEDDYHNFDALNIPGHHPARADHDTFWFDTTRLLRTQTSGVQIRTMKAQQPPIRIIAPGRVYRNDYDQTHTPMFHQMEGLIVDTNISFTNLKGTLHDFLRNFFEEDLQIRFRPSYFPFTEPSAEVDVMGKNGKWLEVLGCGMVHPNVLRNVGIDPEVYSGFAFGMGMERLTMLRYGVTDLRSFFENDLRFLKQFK
E. coli PheRS, sequence (P07395 whole entry partner): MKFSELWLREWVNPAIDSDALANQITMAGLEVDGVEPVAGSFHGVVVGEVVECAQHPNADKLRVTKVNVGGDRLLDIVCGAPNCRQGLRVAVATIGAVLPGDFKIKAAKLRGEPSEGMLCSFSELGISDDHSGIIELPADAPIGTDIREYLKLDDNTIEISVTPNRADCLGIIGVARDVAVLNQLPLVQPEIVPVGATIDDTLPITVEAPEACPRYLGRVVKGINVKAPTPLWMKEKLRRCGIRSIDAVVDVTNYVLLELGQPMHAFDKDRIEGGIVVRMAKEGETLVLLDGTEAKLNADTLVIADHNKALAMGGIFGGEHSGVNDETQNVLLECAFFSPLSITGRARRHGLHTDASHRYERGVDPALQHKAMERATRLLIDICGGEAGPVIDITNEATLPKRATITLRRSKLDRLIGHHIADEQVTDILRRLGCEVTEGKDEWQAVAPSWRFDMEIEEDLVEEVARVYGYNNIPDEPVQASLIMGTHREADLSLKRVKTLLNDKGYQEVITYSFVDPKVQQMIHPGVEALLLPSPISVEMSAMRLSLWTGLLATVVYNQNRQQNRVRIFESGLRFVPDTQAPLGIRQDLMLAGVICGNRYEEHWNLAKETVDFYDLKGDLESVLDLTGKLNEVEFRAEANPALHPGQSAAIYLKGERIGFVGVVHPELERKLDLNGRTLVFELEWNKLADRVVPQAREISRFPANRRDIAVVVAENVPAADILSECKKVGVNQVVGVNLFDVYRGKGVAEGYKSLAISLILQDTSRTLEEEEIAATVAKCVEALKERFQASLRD

With `CC(Cc1ccccc1)NCc1ccccc1` (stereo not shown) [compound 20, norbenzamphetamine] as the molecule, how does the IC50 read?
The IC50 was 169 µM.
